# Measurements taken from patent publication US6713250B1, “Identification of human allergens and T-lymphocyte antigens in vitro” (The Research Foundation of State University of New York, priority 1997, dated 2004).
# Values joined by “and” are separate entries in the source; they are usually repeats but may differ in a detail not shown here. Equal values may be shown once. Marks after values point to notes of the source that are not given here.
# Key:
# [1] = test system: human naive T-cells (PBMC); assay: Primary in vitro sensitization culture of PBMC with or without mitomycin C treated T2 cells, 3H-thymidine uptake; type: cell-based; conditions: for response of PBMC, FIG. 4: PBMC incubated 6 days with mitomycin C treated T2 cells
# Experimental: Preparation of peripheral blood mononuclear cells (PBMC). The research protocol was approved by the Committee on Research Involving Human Subjects of SUNY @ Stony Brook. After informed consent, heparinized blood was obtained by venipuncture. PBMC (peripheral blood mononuclear cells, which include lymphocytes and macrophages/monocytes) were prepared from heparinized peripheral blood by density centrifugation over Ficoll/Hypaque (Pharmacia, Piscataway, N.J.). PBMC were then washed 3 times in serum free wash medium consisting of SMEM (Gibco, Grand Island, N.Y.), and mixed (1:1) with AIM V medium (Gibco). At no time did the PBMC contact animal serum. PBMC were counted, and resuspended at 2×10^6 cells/ml in AIM V medium (Gibco).
# Preparation and mitomycin C treatment of T2 cells. T2 cells were cultured in AIM V media (Gibco). Prior to treatment, they were washed, counted, and resuspended in AIM V media at 2×10^6 cells/ml. Mitomycin C (Sigma, St Louis, Mo.) was then added at 30 μg/ml for a 2 hour incubation at 37° C. The T2 cells were then washed 4 times in serum free wash media, counted with trypan blue dye exclusion, and resuspended at 1×10^6 cells/ml.
# (§1) In vitro sensitization cultures. Cell cultures were performed in 96 well U-bottom trays (Linbro), with a total volume of 0.2 ml/well of AIM V medium (Gibco). PBMC (2×10^6/ml) were first admixed with equal volumes of T2 cells (1×10^6/ml), and 0.1 ml of the cell mixture was added to each well. Test compounds were then added (0.1 ml/well) at twice the desired final concentration. Each well contained 1×10^5 PBMC, 5×10^4 T2 cells, and the test compound. Control wells contained 0.1 ml of media rather than test compound. The final ratio of PBMC to T2 cells was 2:1. There were 6 replicate wells per group. The 96-well trays were then cultured for 6 days at 37° C. in a 7.5% Co2 incubator. After 6 days, 1 μCi of ^3H-thymidine was added to each well. The wells were harvested 18 hours later, and ^3H-thymidine uptake was determined with a scintillation counter (Pharmacia LKB Nuclear, Gaithersburg, Md.).
# [2] = test system: human naive T-cells (PBMC); assay: as above; type: cell-based
# [3] = test system: T-cells (E+) and non-T cells (E-); assay: In vitro sensitization culture of purified T-cells / non-T cells mixtures with mitomycin C treated T2 cells, 3H-thymidine uptake; type: cell-based, human; conditions: for MEAN/SEM (3H-thymidine uptake) / S.I.: T2 cells YES, paraphenylenediamine 10 μg/ml
# Experimental: Purification of T-lymphocytes. Sheep erythrocyte receptor positive (E+) T-cells and negative (E−) non-T-cells were isolated by rosetting followed by centrifugation over a Ficoll-Hypaque gradient and lysis of sheep erythrocytes by ammonium chloride as described (38). The (E+) population was greater than 95% CD3+ as determined by cytofluorgraph analysis (below).
# as §1
# Lymphocyte proliferation assays are generally the result of T-lymphocyte proliferation. It was confirmed that this was also true of this novel in vitro sensitization system. T-cells (70%) were mixed with irradiated (6,000R) non-T cells (30%) for a test of in vitro sensitization to paraphenylenediamine in the presence of mitomycin C treated T2 cells. In a reciprocal group, non-T cells (70%) were mixed with irradiated T-cells (30%). These cell mixtures were added to the culture system, admixed with mitomycin C treated T2 cells, and paraphenylenediamine. […] The T2 cells are not functioning as antigen presenting cells (which is to be expected since the T2 cells lack antigen presenting Major Histocompatibility Complex antigens HLA-DR and HLA-A,B,C), but rather function as accessory cells.
# [4] = PBMC from 4 donors, 6 days with mitomycin C treated T2 cells, each compound 3.3 μM to 60 μM
# [5] = PBMC + T2 CELLS (mitomycin C treated), paraphenylenediamine 10 μg/ml
# [6] = PBMC at 1 × 10^5/well, T2 cells at 5 × 10^4/well, 3 μg/ml
# [7] = PBMC 1 × 10^5/well, no T2 cells, 3 μg/ml
# [8] = PBMC at 1 × 10^5/well, T2 cells at 1 × 10^5/well, 3 μg/ml
# [9] = PBMC, NO T2 CELLS, paraphenylenediamine 10 μg/ml
# [10] = T-cells 30% (6,000R), non-T cells 70%
# [11] = T-cells 70%, non-T cells 30% (6,000R)
smiles,measurement,setting,value
"CCCCCCCCCCCCOS(=O)(=O)[O-].[Na+] [SDS, sodium dodecyl sulfate]","response of PBMC, FIG. 4",[1],negative response
same,induction of a response of naive human T-lymphocytes in the culture system,[1]; culture with accessory T2 cells,did not induce a response
same,"donor PBMC that responded, FIG. 2",[2]; [4],none
Oc1ccccc1O [catechol],"response of PBMC, FIG. 4",[1],positive response
Nc1ccc(O)cc1 [p-aminophenol],"response of PBMC, FIG. 4",[1],positive response
Nc1ccc(N)cc1 [paraphenylenediamine],MEAN (3H-thymidine uptake of 6 replicate wells),[1]; [5],11973
same,S.I. (Stimulation index: response to antigen/response to media),[1]; [5],2.09^e
same,response of naive donor PBMC to antigen,"[1]; PBMC admixed with T2 cells at a ratio of 2:1, paraphenylenediamine 3 μg/ml, HIV gp160 P18 peptide 10 μg/ml",statistically significant response
same,MEAN dpm (3H-thymidine uptake of 6 replicate wells),[1]; [6],6935 dpm
same,S.I. (Stimulation index: response to antigen/response to media),[1]; [6],1.97^c
same,"donor PBMC that responded, FIG. 2",[1]; [4],3/4 and 3
same,"response of PBMC (3H-thymidine uptake), FIG. 1","[1]; PBMC from 4 donors, presence or absence of mitomycin C treated T2 cells, 3 μg/ml, 6 days",Only in the presence of T2 cells was there a response
same,"response of PBMC, FIG. 4",[1],positive response
same,MEAN dpm (3H-thymidine uptake of 6 replicate wells),[2]; [7],2869 dpm
same,S.I. (Stimulation index: response to antigen/response to media),[2]; [7],0.96
same,MEAN dpm (3H-thymidine uptake of 6 replicate wells),[2]; [8],7856 dpm
same,S.I. (Stimulation index: response to antigen/response to media),[2]; [8],1.12
same,"donor PBMC that responded, FIG. 3","[2]; PBMC from 6 donors, 6 days with mitomycin C treated T2 cells",3/6
same,MEAN (3H-thymidine uptake of 6 replicate wells),[2]; [9],3054
same,S.I. (Stimulation index: response to antigen/response to media),[2]; [9],1.03^
same,response of naive donor PBMC to antigen,"[2]; absence of T2 cells, paraphenylenediamine 3 μg/ml, HIV gp160 P18 peptide 10 μg/ml",no response
same,MEAN/SEM (3H-thymidine uptake),[3]; [10],3096/446
same,S.I.,[3]; [10],0.57^
same,MEAN/SEM (3H-thymidine uptake),[3]; [11],50220/2643
same,S.I.,[3]; [11],1.94^e
same,MEAN/SEM (3H-thymidine uptake),"[3]; T-cells YES, non-T cells NO",2263/317
same,S.I.,"[3]; T-cells YES, non-T cells NO",0.67^
same,response to paraphenylenediamine,[3]; T-cells admixed with T2 cells in the absence of non-T cells,no response
same,response to paraphenylenediamine,"[3]; group where the T-cells had been irradiated (6,000R), mitomycin C treated T2 cells",no response
same,response to paraphenylenediamine,"[3]; groups with non-irradiated T-cells, mitomycin C treated T2 cells",only detected in the groups with non-irradiated T-cells
